Measured values taken from patent US20240217977A1, “DIAZEPANONE-FUSED PYRIMIDINE COMPOUNDS, COMPOSITIONS AND MEDICINAL APPLICATIONS THEREOF” (Blueprint Medicines Corporation, priority 2021, published 2024).

Columns and labels:
Type in all cases: cell-based
A431 cells = assay: Cellular proliferation (Alamar Blue) assay, A431 cells; conditions: Homo sapiens, A-431, 72 hr incubation
Protocol: (§1) Example 2: Cellular Proliferation (Alamar Blue) Assays
(§2) • 1. EGFR(D770_N771insSVD) expressing Ba/F3 stable cell line • 2. EGFR (A767_dupASV) expressing Ba/F3 stable cell line • 3. A431 cells • 4. EGFR (H773insNPH) expressing Ba/F3 stable cell line • 5. HER2 (A775_G775insYVMA) expressing Ba/F3 stable cell line
(§3) • 1. Seed cells at 5000 for A431 and 15,000 cells for Ba/F3 in 100 μL/well in complete media (for A431: DMEM with 10% FBS and for Ba/F3 cells: RPMI with 10% FBS) in • 96-well tissue culture plate. Leave outer wells without cells for background measurements. Incubate at 37 degree Celsius in 5% C02 humidified incubator for 16-18 hours. • 2. Add 0.025 ml of 5× concentration compound dilution or DMSO control. Final compound concentration range is 10-0.0005 μM prepared in 3-fold serial dilutions. Incubate for 72 hr at 37 degree Celsius in 5% CO2 humidified incubator. • 3. Add 0.0125 ml Alamar Blue™ reagent to each well with multi-channel pipette and tap gently on each side of the plate to mix. Incubate for 3 hours at 37 degree Celsius in 5% CO2 humidified incubator. • 4. Read plates on fluorescence reader (Tecan Spark Control, Device: Spark, Serial #: 1801006040) at 540 nm excitation, 590 nm emission wavelength. • 5. Data analysis was performed using XLfit 5.5.0.5.

[1] = target: HER2 (A775_G775insYVMA) expressing Ba/F3 stable cell line (Homo sapiens, UniProt P04626, DUP772-775, cells depend on it); assay: Cellular proliferation (Alamar Blue) assay, HER2 (A775_G775insYVMA) Ba/F3; conditions: 72 hr incubation, read-out: YVMA IC50
Protocol: as §1, §2, §3

[2] = target: EGFR(D770_N771insSVD) expressing Ba/F3 stable cell line (Homo sapiens, UniProt P00533, DUP768-770, cells depend on it); assay: Cellular proliferation (Alamar Blue) assay, EGFR(D770_N771insSVD) Ba/F3; conditions: 72 hr incubation, read-out: D770 IC50
Protocol: as §1, §2, §3

[3] = target: EGFR (A767_dupASV) expressing Ba/F3 stable cell line (Homo sapiens, UniProt P00533, DUP767-769, cells depend on it); assay: Cellular proliferation (Alamar Blue) assay, EGFR (A767_dupASV) Ba/F3; conditions: 72 hr incubation, read-out: A767 IC50
Protocol: as §1, §2, §3

EGFR(D770_N771insSVD) expressing Ba/F3 stable cell line, sequence (P00533 with tags, fused parts or gaps DUP768-770): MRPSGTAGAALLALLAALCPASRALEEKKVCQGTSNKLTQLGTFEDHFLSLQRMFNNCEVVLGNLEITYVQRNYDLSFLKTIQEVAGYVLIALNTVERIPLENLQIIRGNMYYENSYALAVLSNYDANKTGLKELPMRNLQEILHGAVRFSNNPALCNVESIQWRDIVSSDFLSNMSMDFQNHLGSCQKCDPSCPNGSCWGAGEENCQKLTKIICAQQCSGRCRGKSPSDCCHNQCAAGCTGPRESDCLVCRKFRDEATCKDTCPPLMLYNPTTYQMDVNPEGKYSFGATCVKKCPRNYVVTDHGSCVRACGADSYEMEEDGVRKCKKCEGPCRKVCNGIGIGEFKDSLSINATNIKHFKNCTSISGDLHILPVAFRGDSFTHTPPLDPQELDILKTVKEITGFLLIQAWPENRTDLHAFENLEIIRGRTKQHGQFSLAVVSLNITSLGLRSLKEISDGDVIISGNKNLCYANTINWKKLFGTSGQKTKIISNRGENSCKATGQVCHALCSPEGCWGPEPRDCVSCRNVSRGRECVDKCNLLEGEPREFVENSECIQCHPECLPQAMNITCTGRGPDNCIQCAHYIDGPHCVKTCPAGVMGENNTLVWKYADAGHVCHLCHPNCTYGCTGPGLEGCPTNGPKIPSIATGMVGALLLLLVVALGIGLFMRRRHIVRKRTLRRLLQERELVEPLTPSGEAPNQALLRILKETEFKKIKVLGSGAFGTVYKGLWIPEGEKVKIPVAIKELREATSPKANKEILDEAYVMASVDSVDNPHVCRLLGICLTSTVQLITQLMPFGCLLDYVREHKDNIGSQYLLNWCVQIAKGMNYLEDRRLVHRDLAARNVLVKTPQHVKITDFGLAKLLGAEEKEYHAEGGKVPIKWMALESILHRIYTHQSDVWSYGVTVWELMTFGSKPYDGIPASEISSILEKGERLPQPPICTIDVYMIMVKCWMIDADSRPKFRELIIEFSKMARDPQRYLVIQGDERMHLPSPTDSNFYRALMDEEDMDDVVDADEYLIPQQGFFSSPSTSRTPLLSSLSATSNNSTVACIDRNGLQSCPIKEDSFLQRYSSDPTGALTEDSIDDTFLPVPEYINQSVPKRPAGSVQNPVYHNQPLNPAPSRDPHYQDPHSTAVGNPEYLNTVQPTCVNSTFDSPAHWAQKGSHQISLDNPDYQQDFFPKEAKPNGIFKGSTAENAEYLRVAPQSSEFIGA
HER2 (A775_G775insYVMA) expressing Ba/F3 stable cell line, sequence (P04626 with tags, fused parts or gaps DUP772-775): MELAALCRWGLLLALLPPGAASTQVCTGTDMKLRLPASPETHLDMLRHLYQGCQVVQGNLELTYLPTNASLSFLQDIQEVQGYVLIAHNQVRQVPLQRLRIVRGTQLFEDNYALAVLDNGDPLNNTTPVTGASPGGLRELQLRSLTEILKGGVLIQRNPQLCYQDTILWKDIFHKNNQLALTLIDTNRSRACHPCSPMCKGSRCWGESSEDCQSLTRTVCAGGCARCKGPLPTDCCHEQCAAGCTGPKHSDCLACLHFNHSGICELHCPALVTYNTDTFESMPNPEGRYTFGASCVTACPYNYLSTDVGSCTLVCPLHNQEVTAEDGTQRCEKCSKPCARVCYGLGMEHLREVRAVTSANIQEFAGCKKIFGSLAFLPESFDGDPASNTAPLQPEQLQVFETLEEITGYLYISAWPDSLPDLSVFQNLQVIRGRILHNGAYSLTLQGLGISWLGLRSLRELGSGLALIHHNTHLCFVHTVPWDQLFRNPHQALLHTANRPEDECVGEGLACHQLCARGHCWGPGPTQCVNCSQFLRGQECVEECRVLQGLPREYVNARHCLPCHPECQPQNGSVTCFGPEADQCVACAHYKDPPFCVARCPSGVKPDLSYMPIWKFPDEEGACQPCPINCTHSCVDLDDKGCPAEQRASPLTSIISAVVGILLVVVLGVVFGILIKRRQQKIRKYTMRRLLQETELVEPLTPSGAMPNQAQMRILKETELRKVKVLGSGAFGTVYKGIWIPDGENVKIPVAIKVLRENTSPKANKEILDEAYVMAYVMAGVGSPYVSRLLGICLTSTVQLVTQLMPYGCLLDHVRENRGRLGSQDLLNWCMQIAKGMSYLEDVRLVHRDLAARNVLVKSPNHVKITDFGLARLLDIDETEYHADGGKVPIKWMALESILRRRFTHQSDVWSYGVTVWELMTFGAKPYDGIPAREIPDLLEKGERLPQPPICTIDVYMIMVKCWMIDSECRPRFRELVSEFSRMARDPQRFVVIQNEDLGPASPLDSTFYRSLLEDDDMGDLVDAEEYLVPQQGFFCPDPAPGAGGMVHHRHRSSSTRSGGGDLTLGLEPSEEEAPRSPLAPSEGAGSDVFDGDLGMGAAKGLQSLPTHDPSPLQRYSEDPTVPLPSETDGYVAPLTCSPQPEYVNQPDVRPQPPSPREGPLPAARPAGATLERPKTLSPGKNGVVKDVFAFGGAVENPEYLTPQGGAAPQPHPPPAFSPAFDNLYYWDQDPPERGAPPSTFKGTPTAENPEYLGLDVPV
EGFR (A767_dupASV) expressing Ba/F3 stable cell line, sequence (P00533 with tags, fused parts or gaps DUP767-769): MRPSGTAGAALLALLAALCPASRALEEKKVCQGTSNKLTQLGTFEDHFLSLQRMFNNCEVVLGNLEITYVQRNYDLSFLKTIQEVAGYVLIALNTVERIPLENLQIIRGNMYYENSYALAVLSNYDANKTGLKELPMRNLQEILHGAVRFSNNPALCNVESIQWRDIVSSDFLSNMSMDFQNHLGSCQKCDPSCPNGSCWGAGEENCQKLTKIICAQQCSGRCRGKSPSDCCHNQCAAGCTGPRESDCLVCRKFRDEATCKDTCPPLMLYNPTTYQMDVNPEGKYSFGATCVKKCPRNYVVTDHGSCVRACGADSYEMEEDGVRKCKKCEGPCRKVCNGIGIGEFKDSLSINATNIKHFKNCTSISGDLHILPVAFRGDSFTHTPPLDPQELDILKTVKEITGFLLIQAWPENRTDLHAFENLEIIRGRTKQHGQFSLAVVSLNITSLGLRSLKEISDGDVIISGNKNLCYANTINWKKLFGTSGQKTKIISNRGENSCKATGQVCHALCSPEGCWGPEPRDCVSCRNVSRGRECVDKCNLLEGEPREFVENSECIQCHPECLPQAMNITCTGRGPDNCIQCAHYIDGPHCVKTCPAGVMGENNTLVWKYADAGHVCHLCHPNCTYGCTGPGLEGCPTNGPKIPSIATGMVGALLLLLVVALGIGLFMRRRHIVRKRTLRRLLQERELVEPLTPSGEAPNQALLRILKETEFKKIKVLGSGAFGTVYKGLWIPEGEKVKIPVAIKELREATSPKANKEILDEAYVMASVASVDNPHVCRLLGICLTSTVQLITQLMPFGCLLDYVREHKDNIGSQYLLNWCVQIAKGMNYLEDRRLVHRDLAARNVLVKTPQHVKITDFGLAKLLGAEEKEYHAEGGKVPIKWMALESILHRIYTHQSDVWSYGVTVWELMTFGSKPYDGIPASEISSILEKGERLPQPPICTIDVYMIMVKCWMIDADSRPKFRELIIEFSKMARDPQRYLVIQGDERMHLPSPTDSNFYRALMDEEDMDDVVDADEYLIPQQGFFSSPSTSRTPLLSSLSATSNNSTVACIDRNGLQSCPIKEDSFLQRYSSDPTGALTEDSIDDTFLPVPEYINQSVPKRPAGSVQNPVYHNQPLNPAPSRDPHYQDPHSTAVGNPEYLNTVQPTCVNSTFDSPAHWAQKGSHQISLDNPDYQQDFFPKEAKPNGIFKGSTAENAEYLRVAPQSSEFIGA

Row | IC50 (A431 cells) | GI50 [1] | GI50 [2] | GI50 [3] | SMILES
1 | > 10000 nM | 3320 nM | 1960 nM | 993 nM | C/C=C/C(=O)Nc1cccc(N2C(=O)N(c3ccccc3)CCc3cnc(Nc4cn(C)nc4Cl)nc32)c1 [Compound 30, (E)-N-(3-(2-((3-chloro-1-methyl-1H-pyrazol-4-yl)amino)-8-oxo-7-phenyl-5,6,7,8-tetrahydro-9H-pyrimido[4,5-d][1,3]diazepin-9-yl)phenyl)but-2-enamide]
2 | > 10000 nM | 1030 nM | 1060 nM | 848 nM | C=CC(=O)Nc1cccc(N2C(=O)N(Cc3ccccc3)CCc3cnc(NC4CCCC4)nc32)c1 [Compound 13, N-(3-(7-benzyl-2-(cyclopentylamino)-8-oxo-5,6,7,8-tetrahydro-9H-pyrimido[4,5-d][1,3]diazepin-9-yl)phenyl)acrylamide]
3 | > 10000 nM | 2420 nM | 3950 nM | 2040 nM | CN(C)C/C=C/C(=O)Nc1cccc(N2C(=O)N(c3ccccc3)CCc3cnc(Nc4cn(C)nc4Cl)nc32)c1 [Compound 31, (E)-N-(3-(2-((3-chloro-1-methyl-1H-pyrazol-4-yl)amino)-8-oxo-7-phenyl-5,6,7,8-tetrahydro-9H-pyrimido[4,5-d][1,3]diazepin-9-yl)phenyl)-4-(dimethylamino)but-2-enamide]
4 | > 10000 nM | – | > 10000 nM | > 10000 nM | C=CC(=O)Nc1cccc(N2C(=O)N(Cc3ccccc3)CCc3cnc(Nc4cccnc4)nc32)c1 [Compound 12, N-(3-(7-benzyl-8-oxo-2-(pyridin-3-ylamino)-5,6,7,8-tetrahydro-9H-pyrimido[4,5-d][1,3]diazepin-9-yl)phenyl)acrylamide]
5 | > 10000 nM | 895 nM | 320 nM | 225 nM | C=CC(=O)Nc1cccc(N2C(=O)N(C3CC3)CCc3cnc(Nc4cn(C)nc4Cl)nc32)c1 [Compound 20, N-(3-(2-((3-chloro-1-methyl-1H-pyrazol-4-yl)amino)-7-cyclopropyl-8-oxo-5,6,7,8-tetrahydro-9H-pyrimido[4,5-d][1,3]diazepin-9-yl)phenyl)acrylamide]
6 | > 10000 nM | 5950 nM | 2770 nM | 1130 nM | COC/C=C/C(=O)Nc1cccc(N2C(=O)N(c3ccccc3)CCc3cnc(Nc4cn(C)nc4Cl)nc32)c1 [Compound 46, (E)-N-(3-(2-((3-chloro-1-methyl-1H-pyrazol-4-yl)amino)-8-oxo-7-phenyl-5,6,7,8-tetrahydro-9H-pyrimido[4,5-d][1,3]diazepin-9-yl)phenyl)-4-methoxybut-2-enamide]
7 | > 10000 nM | 3280 nM | 1360 nM | 1160 nM | Cn1cc(Nc2ncc3c(n2)N(c2cccc(NC(=O)/C=C/CN4CCOCC4)c2)C(=O)N(c2ccccc2)CC3)c(Cl)n1 [Compound 32, (E)-N-(3-(2-((3-chloro-1-methyl-1H-pyrazol-4-yl)amino)-8-oxo-7-phenyl-5,6,7,8-tetrahydro-9H-pyrimido[4,5-d][1,3]diazepin-9-yl)phenyl)-4-morpholinobut-2-enamide]
8 | 114 nM | – | 940 nM | 329 nM | CN(C)C/C=C/C(=O)Nc1cccc(N2C(=O)N(Cc3ccccc3)CCc3cnc(Nc4cn(C5CCN(C)CC5)nc4Cl)nc32)c1 [Compound 8, (E)-N-(3-(7-benzyl-2-((3-chloro-1-(1-methylpiperidin-4-yl)-1H-pyrazol-4-yl)amino)-8-oxo-5,6,7,8-tetrahydro-9H-pyrimido[4,5-d][1,3]diazepin-9-yl)phenyl)-4-(dimethylamino)but-2-enamide]
9 | 20 nM | – | 325 nM | 318 nM | C=CC(=O)Nc1cccc(N2C(=O)N(c3ccccc3)CCc3cnc(Nc4ccc(C5CCN(C)CC5)cc4)nc32)c1 [Compound 36, N-(3-(2-((4-(1-methylpiperidin-4-yl)phenyl)amino)-8-oxo-7-phenyl-5,6,7,8-tetrahydro-9H-pyrimido[4,5-d][1,3]diazepin-9-yl)phenyl)acrylamide]
10 | > 10000 nM | 1230 nM | 1140 nM | 936 nM | CN(C)C/C=C/C(=O)Nc1cccc(N2C(=O)N(c3ccccc3)CCc3cnc(Nc4cccnc4F)nc32)c1 [Compound 44, (E)-4-(dimethylamino)-N-(3-(2-((2-fluoropyridin-3-yl)amino)-8-oxo-7-phenyl-5,6,7,8-tetrahydro-9H-pyrimido[4,5-d][1,3]diazepin-9-yl)phenyl)but-2-enamide]
11 | 6020 nM | 174 nM | 959 nM | 348 nM | COc1cc(N2CCN(C)CC2)ccc1Nc1ncc2c(n1)N(c1cccc(NC(=O)/C=C/CN(C)C)c1)C(=O)N(Cc1ccccc1)CC2 [Compound 15, (E)-N-(3-(7-benzyl-2-((2-methoxy-4-(4-methylpiperazin-1-yl)phenyl)amino)-8-oxo-5,6,7,8-tetrahydro-9H-pyrimido[4,5-d][1,3]diazepin-9-yl)phenyl)-4-(dimethylamino)but-2-enamide]
12 | 225 nM | – | 3480 nM | 2790 nM | Cc1cc(Nc2ncc3c(n2)N(c2cccc(NC(=O)/C=C/CN(C)C)c2)C(=O)N(c2ccccc2)CC3)ccc1N1CCN(C)CC1 [Compound 34, (E)-4-(dimethylamino)-N-(3-(2-((3-methyl-4-(4-methylpiperazin-1-yl)phenyl)amino)-8-oxo-7-phenyl-5,6,7,8-tetrahydro-9H-pyrimido[4,5-d][1,3]diazepin-9-yl)phenyl)but-2-enamide]
13 | 370 nM | – | 989 nM | 9010 nM | CN(C)C/C=C/C(=O)Nc1cccc(N2C(=O)N(c3ccccc3)CCc3cnc(Nc4ccc(C5CCN(C)CC5)cc4)nc32)c1 [Compound 38, (E)-4-(dimethylamino)-N-(3-(2-((4-(1-methylpiperidin-4-yl)phenyl)amino)-8-oxo-7-phenyl-5,6,7,8-tetrahydro-9H-pyrimido[4,5-d][1,3]diazepin-9-yl)phenyl)but-2-enamide]
14 | 1220 nM | – | > 10000 nM | > 10000 nM | C=CC(=O)Nc1cccc(Nc2ncc3c(n2)N(C)C(=O)N(c2ccccc2)CC3)c1 [Compound 45, N-(3-((9-methyl-8-oxo-7-phenyl-6,7,8,9-tetrahydro-5H-pyrimido[4,5-d][1,3]diazepin-2-yl)amino)phenyl)acrylamide]
15 | > 10000 nM | – | 492 nM | 388 nM | C=CC(=O)Nc1cccc(N2C(=O)N(Cc3ccccc3)CCc3cnc(NC4CCOCC4)nc32)c1 [Compound 25, N-(3-(7-benzyl-8-oxo-2-((tetrahydro-2H-pyran-4-yl)amino)-5,6,7,8-tetrahydro-9H-pyrimido[4,5-d][1,3]diazepin-9-yl)phenyl)acrylamide]
16 | > 10000 nM | – | 611 nM | 606 nM | C=CC(=O)Nc1cccc(N2C(=O)N(Cc3ccccc3)CCc3cnc(NC4COC4)nc32)c1 [Compound 27, N-(3-(7-benzyl-2-(oxetan-3-ylamino)-8-oxo-5,6,7,8-tetrahydro-9H-pyrimido[4,5-d][1,3]diazepin-9-yl)phenyl)acrylamide]
17 | 179 nM | – | 933 nM | 911 nM | Cc1cc(Nc2ncc3c(n2)N(c2cccc(NC(=O)/C=C/CN(C)C)c2)C(=O)N(Cc2ccccc2)CC3)ccc1N1CCN(C)CC1 [Compound 23, (E)-N-(3-(7-benzyl-2-((3-methyl-4-(4-methylpiperazin-1-yl)phenyl)amino)-8-oxo-5,6,7,8-tetrahydro-9H-pyrimido[4,5-d][1,3]diazepin-9-yl)phenyl)-4-(dimethylamino)but-2-enamide]
